Experimental data taken from patent publication US8815915B2, “Benzofuran-2-sulfonamides pyridine derivatives as chemokine receptor modulators” (Allergan, Inc., priority 2012, dated 2014).

Biological target: T1, CCR2 receptor (Homo sapiens, UniProt P41597)
T1 construct: expressed in transfected cells
Assay: compound-induced calcium activity on FLIPR Tetra in HEK-Gqi5 cells stably expressing CCR2
Assay type: cell-based
Conditions: CCR2 receptor, HEK-Gqi5 cells stably expressing CCR2, calcium FLIPR Tetra; for IC50: read-out: IC50
Experimental: HEK-Gqi5 cells stably expressing CCR2 were cultured in (DMEM high glucose, 10% FBS, 1% PSA, 400 μg/ml geneticin and 50 μg/ml hygromycin. Appropriate positive control chemokines (MCP-1, MIP1A or RANTES) was used as the positive control agonist for screening compound-induced calcium activity assayed on the FLIPR^Tetra. The drug plates were prepared in 384-well microplates using the EP3 and the MultiPROBE robotic liquid handling systems. Compounds were synthesized and tested for CCR2 activity.

T1 sequence (P41597 whole entry): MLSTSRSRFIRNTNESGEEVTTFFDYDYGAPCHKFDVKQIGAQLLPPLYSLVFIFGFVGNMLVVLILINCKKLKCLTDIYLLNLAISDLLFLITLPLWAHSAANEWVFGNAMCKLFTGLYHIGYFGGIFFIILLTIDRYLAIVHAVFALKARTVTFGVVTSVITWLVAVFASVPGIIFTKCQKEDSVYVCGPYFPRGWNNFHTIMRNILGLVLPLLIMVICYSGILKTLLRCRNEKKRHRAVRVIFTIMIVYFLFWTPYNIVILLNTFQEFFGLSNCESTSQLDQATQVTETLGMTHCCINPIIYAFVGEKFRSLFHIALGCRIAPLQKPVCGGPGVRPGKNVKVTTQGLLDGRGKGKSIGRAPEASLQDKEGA

Row | SMILES | % ANTAGONISM | IC50
1 | O=C(c1ccccc1)c1ncc(Cl)cc1NS(=O)(=O)c1cc2ccccc2o1 [Compound 29, N-[5-chloro-2-(phenylcarbonyl)pyridin-3-yl]-1-benzofuran-2-sulfonamide] | 100% | 0.036 µM
2 | O=S(=O)(Nc1cc(Cl)cnc1S(=O)(=O)c1ccccc1)c1cc2ccccc2o1 [Compound 31, N-[5-chloro-2-(phenylsulfonyl)pyridin-3-yl]-1-benzofuran-2-sulfonamide] | 105% | 0.017 µM
3 | O=S(=O)(Nc1cc(Cl)cnc1[S+]([O-])c1ccccc1)c1cc2ccccc2o1 (stereo not shown) [Compound 32, N-[5-chloro-2-(phenylsulfinyl)pyridin-3-yl]-1-benzofuran-2-sulfonamide] | 99% | 0.007 µM
4 | Cc1ncccc1COc1ncc(Cl)cc1NS(=O)(=O)c1cc2ccccc2o1 [Compound 33, N-{5-chloro-2-[(2-methylpyridin-3-yl)methoxy]pyridin-3-yl}-1-benzofuran-2-sulfonamide] | 102% | 0.251 µM
5 | COC(=O)c1ccccc1CSc1ncc(Cl)cc1NS(=O)(=O)c1cc2ccccc2o1 [Compound 35, methyl 2-[({3-[(1-benzofuran-2-ylsulfonyl)amino]-5-chloropyridin-2-yl}sulfanyl)methyl]benzoate] | 91% | 4.25 µM
6 | O=C(O)c1ccccc1CSc1ncc(Cl)cc1NS(=O)(=O)c1cc2ccccc2o1 [Compound 36, 2-[({3-[(1-benzofuran-2-ylsulfonyl)amino]-5-chloropyridin-2-yl}sulfanyl)methyl]benzoic acid] | 97% | 0.34 µM
7 | COC(=O)c1ccccc1C[S+]([O-])c1ncc(Cl)cc1NS(=O)(=O)c1cc2ccccc2o1 (stereo not shown) [Compound 37, methyl 2-[({3-[(1-benzofuran-2-ylsulfonyl)amino]-5-chloropyridin-2-yl}sulfinyl)methyl]benzoate] | 95% | 0.191 µM
8 | COC(=O)c1ccccc1CS(=O)(=O)c1ncc(Cl)cc1NS(=O)(=O)c1cc2ccccc2o1 [Compound 38, methyl 2-[({3-[(1-benzofuran-2-ylsulfonyl)amino]-5-chloropyridin-2-yl}sulfonyl)methyl]benzoate] | 97% | 0.18 µM
9 | O=C(O)c1ccccc1CS(=O)(=O)c1ncc(Cl)cc1NS(=O)(=O)c1cc2ccccc2o1 [Compound 39, 2-[({3-[(1-benzofuran-2-ylsulfonyl)amino]-5-chloropyridin-2-yl}sulfonyl)methyl]benzoic acid] | 32% | 2.69 µM
10 | O=S(=O)(Nc1cc(F)cnc1Sc1ccccc1)c1cc2ccccc2o1 [Compound 40, N-[5-fluoro-2-(phenylsulfanyl)pyridin-3-yl]-1-benzofuran-2-sulfonamide] | 65% | 0.469 µM
11 | O=S(=O)(Nc1cc(F)cnc1[S+]([O-])c1ccccc1)c1cc2ccccc2o1 (stereo not shown) [Compound 41, N-[5-fluoro-2-(phenylsulfinyl)pyridin-3-yl]-1-benzofuran-2-sulfonamide] | 97% | 0.068 µM
12 | O=C(O)c1ccccc1C[S+]([O-])c1ncc(Cl)cc1NS(=O)(=O)c1cc2ccccc2o1 (stereo not shown) [Compound 43, 2-[({3-[(1-benzofuran-2-ylsulfonyl)amino]-5-chloropyridin-2-yl}sulfinyl)methyl]benzoic acid] | 90% | –
13 | Cc1cnc([S+]([O-])c2ccccc2)c(NS(=O)(=O)c2cc3ccccc3o2)c1 (stereo not shown) [Compound 45, N-[5-methyl-2-(phenylsulfinyl)pyridin-3-yl]-1-benzofuran-2-sulfonamide] | 105% | 0.455 µM
14 | Cc1cnc(S(=O)(=O)c2ccccc2)c(NS(=O)(=O)c2cc3ccccc3o2)c1 [Compound 46, N-[5-methyl-2-(phenylsulfonyl)pyridin-3-yl]-1-benzofuran-2-sulfonamide] | 57% | 1.44 µM
15 | O=C(O)c1ccccc1Sc1ncc(Cl)cc1NS(=O)(=O)c1cc2ccccc2o1 [Compound 47, 2-({3-[(1-benzofuran-2-ylsulfonyl)amino]-5-chloropyridin-2-yl}sulfanyl)benzoic acid] | 102% | 1.23 µM
16 | O=C(O)c1cccc(Sc2ncc(Cl)cc2NS(=O)(=O)c2cc3ccccc3o2)c1 [Compound 48, 3-({3-[(1-benzofuran-2-ylsulfonyl)amino]-5-chloropyridin-2-yl}sulfanyl)benzoic acid] | 96% | 0.786 µM
17 | O=C(O)c1ccccc1[S+]([O-])c1ncc(Cl)cc1NS(=O)(=O)c1cc2ccccc2o1 (stereo not shown) [Compound 50, 2-({3-[(1-benzofuran-2-ylsulfonyl)amino]-5-chloropyridin-2-yl}sulfinyl)benzoic acid] | 5% | 1.95 µM
18 | COC(=O)c1ccccc1CSc1ncccc1NS(=O)(=O)c1cc2ccccc2o1 [Compound 56, methyl 2-[({3-[(1-benzofuran-2-ylsulfonyl)amino]pyridin-2-yl}sulfanyl)methyl]benzoate] | 92% | 1.75 µM
19 | O=C(O)c1ccccc1CSc1ncccc1NS(=O)(=O)c1cc2ccccc2o1 [Compound 57, 2-[({3-[(1-benzofuran-2-ylsulfonyl)amino]pyridin-2-yl}sulfanyl)methyl]benzoic acid] | 98% | 0.493 µM
20 | COC(=O)c1ccccc1C[S+]([O-])c1ncccc1NS(=O)(=O)c1cc2ccccc2o1 (stereo not shown) [Compound 58, methyl 2-[({3-[(1-benzofuran-2-ylsulfonyl)amino]pyridin-2-yl}sulfinyl)methyl]benzoate] | 102% | 0.198 µM
21 | O=C(O)c1ccccc1C[S+]([O-])c1ncccc1NS(=O)(=O)c1cc2ccccc2o1 (stereo not shown) [Compound 59, 2-[({3-[(1-benzofuran-2-ylsulfonyl)amino]pyridin-2-yl}sulfinyl)methyl]benzoic acid] | 58% | –
22 | COC(=O)c1ccccc1CS(=O)(=O)c1ncccc1NS(=O)(=O)c1cc2ccccc2o1 [Compound 60, methyl 2-[({3-[(1-benzofuran-2-ylsulfonyl)amino]pyridin-2-yl}sulfonyl)methyl]benzoate] | 101% | 0.086 µM
23 | O=C(O)c1ccccc1CS(=O)(=O)c1ncccc1NS(=O)(=O)c1cc2ccccc2o1 [Compound 61, 2-[({3-[(1-benzofuran-2-ylsulfonyl)amino]pyridin-2-yl}sulfonyl)methyl]benzoic acid] | 57% | –
